{
  "source": "patent US8623919B2",
  "about": "“Method of synthesizing S-allyl-cysteine analogues and their therapeutic application in treating myocardial infarction” (Fudan University, priority 2007, dated 2014)",
  "key": {"rats following MI injury [1]": {"test_system": "rats following MI injury", "experiment": "Plasma H2S levels in rats (sham or MI)", "type": "in vivo, SD rats", "settings": "50 mg/Kg/day intraperitoneal", "procedure": "(§1) Animals were assigned and prepared the same as in Example 7, and dosages of SPRC and SAC were used the same in this example as in Example 7.\nThe plasma levels of H2S in each treatment group were determined since CSE mediates the endogenous production of H2S in mammals. Plasma H2S concentrations in MI group rats at 48 h after MI induction were 34.7±5.6 μM (n=8). […] Left ventricular CSE activity was analyzed in the tissue homogenates from each treatment group (n=6). CSE activity was 1.58±0.15 μmol/g protein/hr in left the ventricular tissues in MI group and 2.19±0.32 μmol/g protein/hr in the MI+SAC treated rats."}, "rats following MI injury [2]": {"test_system": "rats following MI injury", "experiment": "SOD activity in plasma of rats (sham or MI)", "type": "in vivo, SD rats", "settings": "50 mg/Kg/day intraperitoneal", "procedure": "as §1\n(§2) Serum CK levels were detected with diagnostic kit (NJBI, China) according to the instructions. LDH were determined calorimetrically with a spectrophotometer. Lipid peroxidation was measured in terms of MDA content using the thiobarbituric acid (TBA) assay. […] With regard to lipid peroxidation, the levels of MDA in MI groups increased at 48 h after myocardial infarction. […] (FIG. 14)"}, "CSE mRNA": {"test_system": "CSE mRNA", "experiment": "RT-PCR of CSE mRNA in left ventricle", "type": "in vivo, SD rats", "settings": "MI rats, 50 mg/Kg/day", "text": "as §1\n(§3) To further verify the effects of SPRC and SAC, the expressions of Bcl-2, Bax and CSE mRNA were accessed by RT-PCR (FIG. 17). An isoform of the CSE gene was detected (GenBank; access no. AY641456). The relative amounts of CSE mRNA in Left ventricular subjected to MI were increase 3.3-fold and 1.5-fold following SPRC and SAC exposure as compared to the MI group."}, "myocardial cells [3]": {"test_system": "myocardial cells", "experiment": "SOD activity (Hydroxylamine method) in hypoxia/reoxygenation injured myocardial cells", "type": "cell-based, Sprague-Dawley (SD) rat", "procedure": "Myocardial cell samples were obtained from the same procedure of Example 1, the experiment groups were divided and hypoxia/reoxygenation experiments were performed on Control group, Vehicle group, SAC and analogue groups, same as the experiments in Example 1 with the same dosages and same conditions. Myocardial cells were obtained from each sample (10^6 myocardial cells/sample) from the Control group, Vehicle group, SAC and analogue groups. The cells were lysed under sterilized condition, and SOD (superoxide dismutase) activities in each sample of the cells were determined by Hydroxylamine method (a conventional method well known in the arts) using each microgram of protein per 1 milliliter reaction solution inhibits SOD activity to its 50% of original activity, in which the amount of SOD used in the reaction as standard of 1 unit of SOD activity."}, "rats following MI injury [4]": {"test_system": "rats following MI injury", "experiment": "MDA content (TBA assay) in rats (sham or MI)", "type": "in vivo, SD rats", "settings": "Sham rats; 50 mg/Kg/day intraperitoneal", "procedure": "as §1, §2"}, "Bcl-2": {"test_system": "Bcl-2", "experiment": "Western blot of Bcl-2 protein in left ventricle", "type": "in vivo, SD rats", "settings": "MI rats, 50 mg/Kg/day, p<0.01", "text": "as §1"}, "H9c2 cells [5]": {"test_system": "H9c2 cells", "experiment": "Mn-SOD activity of H9c2 cells injured by H2O2", "type": "cell-based", "settings": "H2O2 injured H9c2; SPRC Low Dose 10^−7 mol/L", "procedure": "H9c2 cells were cultured same as Example 12, the cells were then divided into the groups same as Example 12.\nThe cells were lysed under sterilized condition, and lipid peroxidation experiments on the samples were performed. […] The effect of SPRC could be blocked by PAG, indicating SPRC mediates its effect on H9c2 cell by way of endogenous H2S."}, "rats following MI injury [6]": {"test_system": "rats following MI injury", "experiment": "Serum CK in rats (sham or MI)", "type": "in vivo, SD rats", "settings": "Sham rats; 50 mg/Kg/day intraperitoneal", "procedure": "as §1, §2"}, "Bax": {"test_system": "Bax", "experiment": "Western blot of Bax protein in left ventricle", "type": "in vivo, SD rats", "settings": "MI rats, 50 mg/Kg/day, p<0.01", "text": "as §1"}, "H9c2 cells [7]": {"test_system": "H9c2 cells", "experiment": "LDH leakage of H9c2 cells injured by H2O2", "type": "cell-based", "settings": "for LDH Leakage: H2O2 200 μmol/L 2 hours", "procedure": "H9c2 cells were cultured in DMEM with 10% of fetal bovine serum, 37 degree C. and 5% CO2 incubator. The monolayer culture was split at a 1:4 ratio or harvested to perform experiments when confluence was 70-80%. Adjust the density of the cells to […] and inoculate the cells on a 96 well plate.\nH2O2 injury (Model) group, no SAC analogues treatment, under H2O2 200 μmol/L for 2 hours.\nPAG group, PAG 10^−4/mol/L\nSPRC dosage groups: SPRC 1E-7, SPRC 1E-6, SPRC 1E-5, the cell groups were treated with SPRC dosages of 10^−7 mol/L, 10^−6 mol/L, 10^−5 mol/L respectively.\nSPRC dosage+PAG groups: the cell group was treated with SPRC dosages of 10^−5 mol/L and PAG 10^−4 mol/L.\nThe cell samples (10^6 cells/sample) from each group were lysed under sterilized condition, and LDH contents in each samples were tested by pyruvic acid production method."}, "Bax mRNA": {"test_system": "Bax mRNA", "experiment": "RT-PCR of Bax mRNA in left ventricle", "type": "in vivo, SD rats", "settings": "MI rats, 50 mg/Kg/day, p<0.05", "text": "as §1, §3"}, "myocardial cells [8]": {"test_system": "myocardial cells", "experiment": "Lipid peroxidation (MDA, TBA) in hypoxia/reoxygenation injured myocardial cells", "type": "cell-based, Sprague-Dawley (SD) rat", "settings": "10^−5 mol/L", "procedure": "Myocardial cell samples were obtained from the same procedure of Example 1, the experiment groups were divided and hypoxia/reoxygenation experiments were performed on Control group, Vehicle group, SAC and analogue groups, same as the experiments in Example 1 with the same dosages and same conditions. Myocardial cells were obtained from each sample (10^6 myocardial cells/sample) from the Control group, Vehicle group, SAC and analogue groups. The cells were lysed under sterilized condition, and lipid peroxidation experiments on the samples were performed. Since oxygen free radical attacks poly unsaturated fatty acid in biomembrane, inducing lipid peroxidation and producing MDA (malondialdehyde). MDA can react with thiobarbituric acid (TBA), forms red product, which can be detected in spectrophotometer at 532 nm. […] The inhibition effect could be reversed by PAG."}, "H9c2 cells [9]": {"test_system": "H9c2 cells", "experiment": "Catalase activity in H2O2 injured H9c2 cells", "type": "cell-based", "settings": "SPRC treatments", "text": "Similar experiments are done on cultured H9c2 cardiac muscle cells groups with the same experiment condition and different dosages of SPRC treatments. The results of the experiments confirm that endogenous H2S level in H2O2 injured H9c2 cells is elevated by SPRC treatments. […] It is also observed that the apoptosis of hypoxic myocardial cells is decreased, the survival rate of the in H2O2 injured H9c2 cells is increased and the LDH releasing from the in H2O2 injured H9c2 cells are reduced by three dosages of SPRC treatment."}},
  "data": [
    {"smiles": "C#CCSC[C@H](N)C(=O)O", "note": "[SPRC, S-propargyl-cysteine]", "values": [
      {"measurement": "H2S concentration in plasma", "setting": "rats following MI injury [1]; MI rats, 48 h after MI induction, 50 mg/kg/day", "result": "91.6 ± 7.6", "unit": "µM"},
      {"measurement": "H2S concentration in plasma", "setting": "rats following MI injury [1]; Sham rats", "result": "67.2 ± 6.4", "unit": "µM"},
      {"measurement": "SOD", "setting": "rats following MI injury [2]; MI rats, 48 h after MI", "result": "113.8 ± 1.5", "unit": "U/ml"},
      {"measurement": "SOD", "setting": "rats following MI injury [2]; Sham rats", "result": "161.2 ± 3.8", "unit": "U/ml"},
      {"measurement": "relative amounts of CSE mRNA, increase as compared to the MI group", "setting": "CSE mRNA", "result": 3.3, "unit": "fold"},
      {"measurement": "Mn-SOD activity in mitochondria", "setting": "myocardial cells [3]; 10^−5 mol/L", "result": "able to elevate"},
      {"measurement": "effect of PAG on elevating Mn-SOD activity", "setting": "myocardial cells [3]; with PAG", "result": "PAG also reversed"},
      {"measurement": "MDA", "setting": "rats following MI injury [4]", "result": "3.79 ± 0.40", "unit": "nmol/mL"},
      {"measurement": "Bcl-2 protein expression", "setting": "Bcl-2", "result": "up-regulated"},
      {"measurement": "Mn-SOD Activity", "setting": "H9c2 cells [5]", "result": "8.75 ± 0.68", "unit": "U/mgprot"},
      {"measurement": "CK", "setting": "rats following MI injury [6]", "result": "0.251 ± 0.032", "unit": "U/ml"},
      {"measurement": "Bax protein levels", "setting": "Bax", "result": "down-regulated"},
      {"measurement": "LDH Leakage", "setting": "H9c2 cells [7]; SPRC High Dose 10^−5 mol/L", "result": "43.9 ± 3.0", "unit": "%"},
      {"measurement": "LDH Leakage", "setting": "H9c2 cells [7]; SPRC Low Dose 10^−7 mol/L", "result": "51.4 ± 1.8", "unit": "%"},
      {"measurement": "LDH Leakage", "setting": "H9c2 cells [7]; SPRC middle Dose 10^−6 mol/L", "result": "50.0 ± 2.6", "unit": "%"},
      {"measurement": "LDH leakage compared with model group", "setting": "H9c2 cells [7]; H2O2 injured H9c2, SPRC groups (10^−7 to 10^−5 mol/L)", "result": "less LDH leakage than that of model group"},
      {"measurement": "Bax gene expression", "setting": "Bax mRNA", "result": "down regulated"},
      {"measurement": "lipid peroxidation (MDA)", "setting": "myocardial cells [8]", "result": "inhibited"},
      {"measurement": "catalase activity", "setting": "H9c2 cells [9]", "result": "elevated"}
    ]}
  ]
}
